Measurements as given in patent publication US20210037856A1, “Ruminant Feed Composition Comprising A Muramidase” (Novozymes A/S, priority 2018, published 2021).
Structures can show the parent of a compound that is named as a salt.

How the values were obtained:
rumen fluid [1] = assay: in vitro ruminal fermentation, 22 muramidases, 12 h (Example 4); set-up: species or system cow; DMd: unit not given here; settings: PC (Monensin) 0.01 or 0.10 mg/40 ml, not stated which
Protocol: (§1) The trial was performed by Alimetrics (Alimetrics Ltd, Koskelontie 19B, FIN-02920 Espoo, Finland) using 120 mL serum bottles as fermentation vessels. The fermentation preparation and procedure is presented in Kettunen et al., (Kettunen H., J. Vuorenmaa, D. Gaffney and J. Apajalahti (2016): Yeast hydrolysate product enhances ruminal fermentation in vitro. J. App. Anim. Nutr., Vol. 4; e1; page 1 of 7). In short, the method is as follows: All bottles were initially filled with 1 g of feed DM composed from corn silage, barley meal, soybean meal, at the amounts of 0.5, 0.4, and 0.1 g DM, respectively. Subsequently, the bottles were flushed with CO2 passed through a hot copper catalyst for O2 scavenging and sealed with thick butyl rubber stopper. Anaerobic, reduced and temperature adjusted (+38° C.) artificial saliva buffer solution (Modified from Agriculture Handbook No. 379, (USDA, Washington, D.C., 1975), volume of 37.65 ml), freshly strained rumen fluid (5% inoculum; volume of 2 ml), and test compounds (volume of 0.35 ml) was introduced into the fermentation vessels under the oxygen-free CO2 flow. Following rumen fluid was collected from a ruminal cannulated cow. Rumen fluid was pumped directly from the rumen into a preheated thermos and immediately closed, and transported to Alimetrics laboratory. The rumen fluid was used for inoculation within 2 hours of harvest. To ensure that both liquid and particle associated ruminal microbes were present in the inoculum both fractions were obtained. Liquid and solid fractions were strained through a metal mesh (grid size 3×3 mm) under anaerobic conditions prior to buffer dilution.
(§2) Following inoculation with rumen fluid, buffer and test solution, the vessels were sealed with the butyl rubber septum's. All fermentation vessels were inoculated in random order to prevent the possible block effects. Inoculation time for each fermentation vessel was registered and was taken into account op on each sampling to ensure that duration of the fermentation was the same for each sample. The fermentation was continued for 12 h in a gyratory shaker at +38° C. Fermentation gas produced was measured and relived by collection of the fermentation gas in syringes at time 3, 6, 9, and 12 h. Feed residues were measured after 12 h fermentation.
The trial design was a dosage response, complete randomized design with 27 treatments using 145 fermentation vessels according to table 5. […] Negative control was supplemented with the same buffer solution that was used for diluting the enzymes to reach the same liquid volume as the supplemented fermentation vessels. The ionophore Monensin (Monensin sodium salt, 90-95% TLC (Sigma Aldrich; Product code: M5273-1G)) was chosen as a positive control because it is a ruminants feed additive that affects volatile fatty acids (VFA) production.
(§3) Liquid Samples Obtained at 12 h were Analyzed for the Concentration of VFA (Acetate, Propionate, butyrate, and valerate) by GC-FID using a glass column packed with 80/120 carbopack B-DA/4% Carbowax stationary and helium as a carrier gas (Kettunen H., J. Vuorenmaa, T. Rinttilä, H. Grönberg, E. Valkonen and J. Apajalahti (2015): Natural resin acid-enriched composition as a modulator of intestinal microbiota and performance enhancer in broiler chicken. J. App. Anim. Nutr., Vol. 3; e2; page 1 of 9).
(§4) Digestibility of dry matter was quantified by determination of dry matter in the original feed matrix and in all fermentation vessels after 12 h of fermentation. Feed residues from the fermentation vessels were obtained by filtration tared sintered glass filters, washed with water and dried at 105° C. for 12 hours. Finally, the glass filters are weighed for the residual feed dry matter.
(§5) Dry matter digestibility (DMd) was calculated at the ratio between feed residues after end fermentation and the dry matter fed. […]

rumen fluid [2] = assay: in vitro ruminal fermentation, 13 muramidases, 12 h (Example 3); set-up: species or system cow; settings: PC at dosage 0.01 mg/40 mL
Protocol: as §1, with “collection” for “was collected”
as §2, with “solution” for “solution,”
The trial design was a dosage response, complete randomized design with 28 treatments using 150 fermentation vessels according to table 3. The 13 muramidase solutions were diluted to the concentration needed in enzyme buffer (BSA, Tween 20, acetate-buffer, Calcium, NaOH, adjusted to pH 6). Negative control was supplemented with the same buffer solution that was used for diluting the enzymes to reach the same liquid volume as the supplemented fermentation vessels. The ionophore Monensin (Monensin sodium salt, 90-95% TLC (Sigma Aldrich; Product code: M5273-1G)) was chosen as a positive control because it is a ruminants feed additive that affects volatile fatty acids (VFA) production.
as §3, with “samples obtained” for “Samples Obtained”, “analyzed” for “Analyzed”, “concentration” for “Concentration”, “(acetate, propionate,” for “(Acetate, Propionate,”
as §4, §5

Staphylococcus aureus = settings: does not cleave N,6-O-diacetylmuramic acid in cell walls; Masschalck et al. 2002; cited from earlier work
[3] = dry matter digestibility after 12 h
[4] = summed carbon in VFA after 12 h

Compound | Acetate (rumen fluid [1]; VFA production after 12 h) | Butyrate (rumen fluid [1]; VFA production after 12 h) | Propionate (rumen fluid [1]; VFA production after 12 h) | DMd (rumen fluid [1]; [3]) | Total VFA (rumen fluid [1]; sum of VFA after 12 h) | Carbon in VFA (rumen fluid [1]; [4]) | Acetate (rumen fluid [2]; VFA production after 12 h) | Butyrate (rumen fluid [2]; VFA production after 12 h) | Propionate (rumen fluid [2]; VFA production after 12 h) | DMd (rumen fluid [2]; [3]) | Total VFA (rumen fluid [2]; sum of VFA after 12 h) | Carbon in VFA (rumen fluid [2]; [4]) | lysis of Staphylococcus aureus (Staphylococcus aureus)
CC[C@@]1([C@@H]2O[C@@H]([C@H]3O[C@@](O)(CO)[C@H](C)C[C@@H]3C)C[C@@H]2C)CC[C@H]([C@]2(C)CC[C@]3(C[C@H](O)[C@@H](C)[C@@H]([C@@H](C)[C@@H](OC)[C@H](C)C(=O)O)O3)O2)O1 [PC, Monensin sodium salt, reference compound] | 44.2 mmol/L | 3.7 mmol/L | 42.8 mmol/L | 0.51 | 91 mmol/L | 234 mmol/L | 47.5 mmol/L | 3.86 mmol/L | 46.4 mmol/L | 0.55 | 98 mmol/L | 251 mmol/L | 
Muramidase extracted from hen egg white: GH22 muramidase from hen egg white, primary product available on the commercial market |  |  |  |  |  |  |  |  |  |  |  |  | unable to lyse
